Measurements: patent US10273226B2, “Pyrazolyl-heteroarylamides as pesticides” (Bayer Animal Health GmbH, priority 2014, dated 2019)

Assays:
Assay type in all cases: in vivo
[1] = tested on: Myzus persicae; experiment: Myzus persicae spray test; conditions: application rate 100 g/ha; after 6 days
How it was run: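 Chinese cabbage leaf discs infested with all stages of green peach aphid were sprayed with compound formulated in solvent and water containing 1000 ppm emulsifier. Percent kill was assessed after 6 days, where 100% means all aphids dead and 0% none dead.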

[2] = tested on: Rhipicephalus sanguineus; experiment: Rhipicephalus sanguineus in vitro contact test with adult brown dog ticks; conditions: application rate 5 μg/cm^2 (500 g/ha); after 48 h; ticks dead or moribund
How it was run: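 Test tubes (25 ml) were coated by dissolving active ingredient in acetone p.a., diluting to the required concentration, and spreading 250 μl over the inner walls and base on an orbital shaker at 30 rpm for 2 h. Once dry, 5-10 adult Rhipicephalus sanguineus were added, and tubes were capped with perforated lids and kept horizontal in darkness at room temperature. At 48 h, ticks were knocked down and heated at 45-50° C. for up to 5 min. Those unable to climb away were counted dead or moribund, and efficacy ran from 0% to 100%.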

[3] = tested on: Spodoptera frugiperda; experiment: Spodoptera frugiperda spray test; conditions: application rate 100 g/ha; caterpillars; after 7 days
How it was run: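 Maize leaf discs were sprayed with compound formulated in solvent plus water containing 1000 ppm emulsifier, dried, then infested with Spodoptera frugiperda caterpillars. Efficacy in % mortality was scored after 7 days (100% all killed, 0% none).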

[4] = tested on: Ctenocephalides felis; experiment: Ctenocephalides felis in vitro contact test with adult cat fleas; conditions: application rate 5 μg/cm^2 (500 g/ha); after 48 h; fleas dead or moribund
How it was run: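 Test tubes were coated with 250 μl acetone solution of compound, giving 5 μg/cm^2 at 900 ppm, then dried and stocked with 5-10 adult cat fleas. After 48 h at room temperature and ambient humidity, dead or moribund fleas were counted; efficacy given as % (100% = all dead or moribund).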

Measured: efficacy

Cn1nc(C(F)(F)C(F)(F)F)c(C(F)(F)F)c1-n1cc(-c2cccc(NC(=O)c3ccncc3)c2)cn1 [Example 1-001, N-{3-[2′-Methyl-5′-(pentafluoroethyl)-4′-(trifluoromethyl)-2′H-1,3′-bipyrazol-4-yl]-phenyl}isonicotinamide]
100%: all assays above
